Reference: patent publication US20250009819A1, “NOVEL PROBIOTICS AND USE THEREOF” (PBLBIOLAB CO., LTD., priority 2021, published 2025)

How the values were obtained:
[1] = system: animals with intestinal and brain diseases induced by TNBS; experiment: Animals with intestinal and brain diseases induced by TNBS: improvement effect in colon; format: in vivo, C57BL/6 male mice; conditions: TNBS-treated mice, 1×10^9 CFU/mouse or sulfasalazine 50 mg/kg orally once a day for 5 days
Method: Then, the supernatant was obtained by centrifugation for 10 minutes at 4° C. and 10,000 g. A volume of 50 μl of the supernatant was added to 0.95 mk of reaction solution (containing 1.6 mM tetramethyl benzidine and 0.1 mM H2O2), reacted at 37° C., and absorbance was monitored over time at 650 nm. […] Indicators of this supernatant were measured using an ELISA kit (Ebioscience). C57BL/6 male mice (5 weeks old, 19-21 g) were divided (6 mice in each group) and acclimatized to the laboratory for 1 week. […] Meanwhile, the normal group was orally administered with 0.1 ml of physiological saline. From the next day, the mice were orally administered once a day for 5 days with lactic acid bacteria as a test sample suspended in physiological saline solution at a concentration of 1×10^9 CFU per mouse (NK210 alone (LR): 1×10^9 CFU/mouse, NK219 alone (BL): 1×10^9 CFU/mouse, NK209 alone (LL): 1×10^9 CFU/mouse, combined (MX, 210+219): NK210, 8×10^8 CFU/mouse and NK219, 2×10^8 CFU/mouse, combined (MX, 209+219) NK209, 8×10^8 CFU/mouse and NK219, 2×10^8 CFU/mouse, LR+BL+LL: NK210, 4×10^8 CFU/mouse, NK219, 2×10^8 CFU/mouse, and NK209, 4×10^8 CFU/mouse, heat treated (H—), respectively: 1×10^9 CFU/mouse). […] The day following the conclusion of sample administration, the experimental animals were sacrificed, and samples from the brain hippocampus, colon, and spleen were collected. In the Hippocampus, inflammatory indicators, such as TNF-α and IL-10, were measured using ELISA. In the colon, intestinal length and inflammatory indicators, such as TNF-α and IL-10, were measured. In the spleen, Th1 cells and Treg cells were measured by FACS (Fluorescence-Activated Cell Sorting).

[2] = Antioxidant activity (DPPH, in vitro); format: biochemical; conditions: DPPH 0.2 mM; lactic acid bacteria suspension 1×10^8 CFU/ml; 37° C. 20 min
Outline: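 Lactic acid bacteria suspension (1×10^8 CFU/ml) or vitamin C (1 g/ml) was mixed with 0.2 mM ethanolic DPPH and incubated 20 min at 37° C. After centrifugation, supernatant absorbance at 517 nm gave the antioxidant activity.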

TNF-α = TNF-α expression in LPS-treated macrophages (ELISA); format: cell-based, C57BL/6 mice; conditions: macrophages treated with lactic acid bacteria and LPS for 24 hours
Outline: (§1)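 Peritoneal macrophages were elicited in male C57BL/6 mice (6 weeks) by i.p. 4% thioglycolate and harvested 96 h later. Cells at 0.5×10^6/well were treated with lactic acid bacteria plus LPS for 24 h. Cytokines in the supernatant were quantified by ELISA.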

IL-10 = IL-10 expression in LPS-treated macrophages (ELISA); format: cell-based, C57BL/6 mice; conditions: macrophages treated with lactic acid bacteria and LPS for 24 hours
Outline: as §1

Neuropeptide Y (NPY) = Neuropeptide Y (NPY) expression in PC12 phaeochromocytoma cells; format: cell-based; conditions: LPS 200 ng/ml; lactic acid bacteria 1×10^4 CFU/ml; 24 hr
Method: PC12 cells obtained from the Korean Cell Line Bank were cultured in DMEM medium supplemented with 10% FBS and 1% antibiotics, and dispensed at 1×10^6 cells per well in a 12-well plate. Then, LPS (200 ng/ml) was added to each well along with lactic acid bacteria (1×10^4 CFU/ml) and incubated for 24 hr. The cells and supernatants were collected, sonicated and centrifuged, and the amount of NPY in the supernatant was measured by ELISA kit.

BDNF = BDNF expression in SH-SY5Y cells; format: cell-based; conditions: LPS 200 ng/ml; lactic acid bacteria 1×10^4 CFU/ml; 24 h
Method: SH-SY5Y cells obtained from the Korean Cell Line Bank were cultured in DMEM medium supplemented with 10% FBS and 1% antibiotics, and dispensed at 2×10^6 cells per well in a 12-well plate. Then, LPS (200 ng/ml) was added to each well along with lactic acid bacteria (1×10^4 CFU/ml) and incubated for 24 h. The cells and supernatants were collected, sonicated and centrifuged, and the amount of BDNF in the supernatant was measured by ELISA kit.

gut microbiota = experiment: LPS production in gut microbiota (ELISA); format: cell-based; conditions: human feces culture; lactic acid bacteria 1×10^6 CFU/mL; anaerobic 24 hr
Method: Fresh human feces were suspended in anaerobic medium (GAM, Nissui Pharmaceutical Co., Ltd., Japan) and allowed to stand for 10 min. The supernatant was diluted with 10,000-fold anaerobic medium, 0.05 mL of the dilution was transplanted into 5 mL of freshly made anaerobic medium, and lactic acid bacteria (1×10^6 CFU/mL) were implanted and incubated anaerobically for 24 hr.

Clostridium difficile = Clostridium difficile proliferation in gut microbiota (PCR); format: cell-based; conditions: for Gut microbiota Inhibition of difficile bacteria proliferation: human feces culture, lactic acid bacteria 1×10^6 CFU/mL, anaerobic 24 hr
Outline: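 Human fecal supernatant, diluted 10,000-fold in GAM, co-cultured anaerobically 24 h with lactic acid bacteria (1×10^6 CFU/mL). C. difficile quantified by PCR on pellet DNA (95 °C 30 s; 42 cycles 95 °C 5 s/72 °C 30 s); supernatant LPS measured by ELISA.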

| Substance | Colon IFN-γ [1] [pg/mg] | Colon IL-10 [1] [pg/mg] | Colon MPO [1] [μUnit/mg] | Colon TNF-α [1] [pg/mg] | Colon length (cm) [1] [cm] | Antioxidant activity [2] | Macrophage Inhibition of TNF-α expression (TNF-α) | Macrophage Induction of IL-10 expression (IL-10) | PC12 cell Induction of NPY expression (Neuropeptide Y (NPY)) | SHSY5Y cell Induction of BDNF expression (BDNF) | Gut microbiota Inhibition of LPS production (gut microbiota) | Gut microbiota Inhibition of difficile bacteria proliferation (Clostridium difficile) | inhibiting the proliferation of intestinal Clostridium difficile (Clostridium difficile; result in words, summary of Table 2) |
| --- | --- | --- | --- | --- | --- | --- | --- | --- | --- | --- | --- | --- | --- |
| Bifidobacterium longum NK219 | 7.79 | 17.20 | 16.24 | 20.57 | 4.82 | +++ (very strongly (+++; >90%)) | +++ (very strongly (+++; >90%)) | +++ (very strongly (+++; >90%)) | ++ (strongly (++; >60-90%)) | +++ (very strongly (+++; >90%)) | +++ (very strongly (+++; >90%)) | +++ (very strongly (+++; >90%)) |  |
| Lactobacillus rhamnosus NK210 | 8.42 | 15.31 | 18.43 | 23.84 | 4.63 | +++ (very strongly (+++; >90%)) | ++ (strongly (++; >60-90%)) | +++ (very strongly (+++; >90%)) | +++ (very strongly (+++; >90%)) | ++ (strongly (++; >60-90%)) | +++ (very strongly (+++; >90%)) | +++ (very strongly (+++; >90%)) |  |
| Lactococcus lactis NK209 | 7.89 | 17.10 | 15.65 | 20.12 | 4.89 | + (weakly (+; >20-60%)) | + (weakly (+; >20-60%)) | + (weakly (+; >20-60%)) | + (weakly (+; >20-60%)) | + (weakly (+; >20-60%)) | + (weakly (+; >20-60%)) | +++ (very strongly (+++; >90%)) | significant effect |
